System: patients with dry eye disorder and other eye symptoms
Assay: Clinical usage of deacidified coconut oil for treating eye diseases or disorders (three patients)
Format: in vivo, human
Conditions: before deacidified coconut oil
Description: The deacidified coconut oil was initially developed for treating the dry eye disorder. As the research continued, it was determined that the deacidified coconut oil can also be used to treat asthenopia, impaired vision, blurred vision, photophobia, astigmatism, and blepharitis. As shown in the following cases, the deacidified coconut oil was successfully administered to three patients with positive outcomes.
[…] […] […] […] […] In 2013-2014, the patient developed additional eye symptoms including astigmatism, blepharitis, anxiety and body weight loss (e.g., about 10 kilograms). In 2015, the patient used the deacidified coconut oil as described herein as eye drops, placed the thermal pad as described herein on the eyes, and took herb composition as described herein. […] In 2019, the symptoms of dry eye disorder including pain, dryness, redness, foreign matter sensation and insomnia were gone. In addition, symptoms such as repetitive visual fatigue, decreased vision, blurred vision, photophobia, sensitivity to wind, astigmatism, and eyelid inflammation disappeared. The patient's overall vision condition improved relative to that in 2015. The eyeglass prescription for both eyes decreased by 1.50-2.00.
The second patient, person. […]

Substance: Recombinant Bovine Basic Fibroblast Growth Factor Eye Drops: Recombinant Bovine Basic Fibroblast Growth Factor Eye Drops
- effect of earlier treatment, second patient: No significant improvement was observed

Reference: patent publication US10933111B2, “Treating dry eye disorders” (Boston Biotechnology US CORP, priority 2019, dated 2021)
